Assay results taken from patent US7166739B2, “Esters of monomethyl branched alcohols and process for preparing and using same in cosmetics and personal care products” (Finetex, Inc., priority 2004, dated 2007).

What was measured:
[1] = Viscosity of esters (typical properties); assay type: physicochemical; settings: @ 25° C.
Experimental: (§1) An analysis of the esters of the invention, i.e., Benzoate ester (Ref. No. 130-63); Octanoate Ester (Ref. No. 130-67); and Maleate Ester (Ref. No. 134-26), was conducted as to appearance, color, percentage water, acidity, saponification value, surface tension, spreading coefficient, freezing point, refractive index and specific gravity. The results are presented in Table I which identifies typical properties of the esters of the invention.

[2] = Solubility of esters in various solvents (1 gram of ester in 10 gm. solvent)
[3] = Spreading coefficient of esters (typical properties); assay type: physicochemical; design: unit not given here
Experimental: as §1

[4] = Surface tension of esters (typical properties); assay type: physicochemical
Experimental: as §1

Di(C16–17 alkyl) maleate [Maleate Ester (134-26)]
Viscosity [1]: 80 cps
Solubility in Dow Corning Fluid 245/345 [2]: +
Solubility in Ethanol [2]: +
Solubility in Finester EH-25 [2]: +
Solubility in Finsolv BOD [2]: +
Solubility in Finsolv EB [2]: +
Solubility in Finsolv EMG-20 [2]: −
Solubility in Finsolv P [2]: +
Solubility in Finsolv PG-22 [2]: +
Solubility in Finsolv PL-62 [2]: +
Solubility in Finsolv PL-355 [2]: +
Solubility in Finsolv SB [2]: +
Solubility in Finsolv TN [2]: +
Solubility in Glycerine [2]: −
Solubility in IPM/IPP (Witconol 2314/2316) [2]: +
Solubility in Mineral Oil [2]: +
Solubility in Propylene Glycol [2]: −
Solubility in Water [2]: −
Spreading Coefficient [3]: 34.0
Surface Tension [4]: 30.5 dynes/cm
